Columns and labels:
[1] = tested on: CD45RA^+CD25^+CD4^+ T cells; assay: Expansion culture of CD45RA^+CD25^+CD4^+ T cells with anti-CD3/CD28 beads and IL-2, rapamycin added; format: cell-based, human; conditions: for increase of cell number in the culture product: 50 days after start
Procedure: (§1) Venous blood was obtained from healthy volunteers (human). Peripheral blood mononuclear cell (PBMC) was isolated by Ficoll-Hypaque (Amersham Biosciences-Uppsala) density gradient centrifugation. The cells were stained with allophycocyanin (APC)-conjugated anti-CD4 monoclonal antibody (mAb), phycoerythrin (PE)-conjugated anti-CD25 mAb, and fluorescein isothiocyanate (FITC)-conjugated anti-CD45RA mAb for 30 min at 4° C. in the dark, after which the following six different cell fractions were isolated using a BD FACSAria cell sorter (Becton Dickinson)(see FIG. 1A).
(§2) CD45RA^+CD25^+CD4^+ T cells or CD45RA^+CD25^−CD4^+ T cells (5×10̂4 cells/well) separated as described above were stimulated with anti-human CD3 and CD28 conjugate beads in a ratio of 4 beads per cell in a 96-well round-bottomed culture plate containing 200 μl per well of a proliferation medium (AlyS505N (produced by Cell Science & Technology Institute) supplemented with 2% human AB serum) in the presence of human IL-2 (1000 U/ml, produced by Cell Science & Technology Institute). Rapamycin (20 nM, produced by Sigma) was added as appropriate. Every 3 to 4 days, half of the medium was replaced with a fresh proliferation medium containing IL-2. If necessary, the cells were separated and repeatedly re-stimulated with anti-CD3/CD28 antibody conjugated beads every 10 to 14 days. Two days before functional assay, the anti-CD3/CD28 antibody conjugated beads were removed magnetically, and the cells were cultured along with 100 U/ml IL-2 in the absence of rapamycin. After 3 times of washing, the cells were used for functional assay.

[2] = tested on: CD45RA^+CD25^−CD4^+ T cells; assay: Expansion culture of CD45RA^+CD25^−CD4^+ T cells with anti-CD3/CD28 beads and IL-2, rapamycin added; format: cell-based, human
Procedure: as §1, §2

[3] = tested on: CD45RA^+CD25^+CD4^+ T cell line; assay: Mixed lymphocyte reaction with trans-well, rapamycin-cultured CD45RA^+CD25^+CD4^+ T cell line; format: cell-based, human; conditions: rapamycin 20 nM from day 40
Procedure: (§3) CD45RA^+CD25^+CD4^+ T cells or CD45RA^+CD25^−CD4^+ T cells in human peripheral blood separated in the same manner as Example 1 (5×10̂4 cells/well) were stimulated with anti-human CD3 and CD28 conjugate beads in a ratio of 4 beads per cell in a 96-well round-bottomed culture plate containing 200 μl per well of a proliferation medium (AlyS505N (produced by Cell Science & Technology Institute) supplemented with 2% human AB serum) in the presence of human IL-2 (1000 U/ml, produced by Cell Science & Technology Institute). Rapamycin (20 nM, produced by Sigma) was added to the medium 40 days after the start of cultivation. Every 3 to 4 days, half of the medium was replaced with a fresh proliferation medium containing IL-2. If necessary, the cells were separated and repeatedly re-stimulated with anti-CD3/CD28 antibody conjugate beads every 10 to 14 days. Fifty days after the start of cultivation, the cells were collected and used for functional assay.
(§4) Total CD4^+ T cells in peripheral blood were isolated in the same manner as Example 1. […] The culture product was collected, and [3H] thymidine uptake was measured using 1450 Microbeta TriLux (Wallac).

[4] = tested on: CD45RA^+CD25^−CD4^+ T cell line; assay: Mixed lymphocyte reaction with trans-well, rapamycin-cultured CD45RA^+CD25^−CD4^+ T cell line; format: cell-based, human; conditions: rapamycin 20 nM from day 40
Procedure: as §3, §4

mouse CD4^+ T = conditions: cited from earlier work
[5] = used alone or in combination with picibanil; cited from earlier work
[6] = tested on: adjuvant-induced arthritis model; conditions: model of rheumatoid arthritis; cited from earlier work
[7] = conditions that allow cell contact
[8] = contact blocked with the trans-well
[9] = stimulated in the presence of rapamycin

CO[C@H]1C[C@@H]2CC[C@@H](C)[C@@](O)(O2)C(=O)C(=O)N2CCCC[C@H]2C(=O)O[C@H]([C@H](C)C[C@@H]2CC[C@@H](O)[C@H](OC)C2)CC(=O)[C@H](C)/C=C(\C)[C@@H](O)[C@@H](OC)C(=O)[C@H](C)C[C@H](C)/C=C/C=C/C=C/1C [rapamycin]
increase of cell number in the culture product ([1]; rapamycin 20 nM added 7 days after start): about 60 times | proliferation of the CD45RA^+CD25^+CD4^+ T cell line ([1]; rapamycin 20 nM added 7 days or 39 days after start of cultivation): suppressed after the time of addition | increase of cell number in the culture product ([1]; rapamycin 20 nM added 39 days after start): about 700 times | proliferation of CD45RA^+CD25^+CD4^+ T cells ([1]; rapamycin 20 nM added from the start of cultivation): suppressed | increase of cell number in the culture product ([1]; rapamycin 20 nM added from the start of cultivation (day 0)): about 20 times | influence on the proliferation of the T cell line ([2]; rapamycin 20 nM added 19 days after start of cultivation): almost no influence | proliferation of CD45RA^+CD25^−CD4^+ T cells ([2]; rapamycin 20 nM from the start of cultivation, compared with cultivation in the absence of rapamycin): slightly suppressed | increase of cell number in the culture product ([2]; rapamycin 20 nM from the start of cultivation, about 35 days after start): about 700 times | T cell line's effect on proliferation of total CD4^+ T cells [3, 7]: strongly suppressed | suppression of the proliferation of total CD4^+ T cells by the T cell line [3, 8]: interrupted | T cell line's effect on proliferation of total CD4^+ T cells [4, 7]: strongly suppressed | suppression of the proliferation of total CD4^+ T cells by the T cell line [4, 8]: continued to suppress | CD4^+CD25^+FOXP3^+ regulatory T cells (mouse CD4^+ T; mouse CD4^+ T stimulated with an antigen in the presence of rapamycin): expanded selectively | expression of FOXP3 in CD4^+CD25^− T cells (mouse CD4^+ T; [9]): did not enhance | proliferation of isolated CD4^+CD25^+ T cells (mouse CD4^+ T; [9]): proliferated vigorously | suppressive function of the T cell population produced from CD4^+CD25^+ T cells (mouse CD4^+ T; [9]): having suppressive function | suppressive function of the T cell population produced from CD4^+CD25^− T cells (mouse CD4^+ T; [9]): without suppressive function | antitumor activity [5]: possess antitumor activity | efficacy in adjuvant-induced arthritis model [6]: effective

Source: patent US20090246212A1, “DEVELOPMENT OF METHOD FOR SCREENING FOR DRUG CAPABLE OF IMPROVING PRODUCTION OF REGULATORY T CELLS AND METHOD FOR PRODUCING REGULATORY T CELLS USING IMMUNOSUPPRESSIVE MACROLIDE ANTIBIOTIC” (KYOTO UNIVERSITY, priority 2005, published 2009)
